Measurements as given in patent US20240226026A1, “BRANCHED TAIL LIPID COMPOUNDS AND COMPOSITIONS FOR INTRACELLULAR DELIVERY OF THERAPEUTIC AGENTS” (ModernaTX, Inc., priority 2021, published 2024).

system: CD-1 mice; assay: Expression of hEPO induced by LNPs (mRNA encoding hEPO) administered to mice; assay type: in vivo; conditions: Table 4a, serum, 6 h after intravenous injection
Procedure: In some embodiments, hEPO concentrations were determined using an […] (ELLA) Simple Plex Assay (ProteinSimple) with a Human Erythroprotein cartridge. Standards for this assay are calibrated according to the 2. IRP WHO preparation. Nanoparticle compositions including mRNA are useful in the evaluation of the efficacy and usefulness of various formulations for the delivery of therapeutic and/or prophylactics. Higher levels of protein expression induced by administration of a composition including an mRNA will be indicative of higher mRNA translation and/or nanoparticle composition mRNA delivery efficiencies. As the non-RNA components are not thought to affect translational machineries themselves, a higher level of protein expression is likely indicative of a higher efficiency of delivery of the therapeutic and/or prophylactic by a given nanoparticle composition relative to other nanoparticle compositions or the absence thereof.
To assess potency of expression of lipids of the disclosure, the protein expression (hEPO) following administration of a nanoparticle comprising a lipid of the disclosure (e.g., a loaded LNP) to mice was measured.
Lipid nanoparticles (LNPs) including DSPC as a phospholipid, cholesterol as a structural lipid, PL-II (e.g., PEG-1) as a PEG lipid, a lipid according to Formula (I-1), (I), (I-A), (I-A1), (I-A2), (I-A3), or (I-A4), and an mRNA encoding hEPO were intravenously administered to CD-1 mice. The concentration of hEPO in serum was tested at 6 h after injection.

SMILES | Avg. hEPO Concentration (mIU/mL) ± Avg. SD
CCCCCCCC(CCCCCCC)OC(=O)CCCCCCCN(CCCCCCCC(=O)OCCC(CCCC)CCCC)CCCNc1n[s+]([O-])nc1NC (stereo not drawn) [Compound 15] | 3.74E+06 ± 1.61E+05 mIU/mL
CCCCCCCC(CCCCCCC)OC(=O)CCCCCCCN(CCCCCCCC(=O)OCCC(CCCC)CCCC)CCCNS(=O)(=O)CCOC [Compound 17] | 1.00E+07 ± 2.34E+05 mIU/mL

system: not listed separately; assay: Particle size (diameter) and polydispersity index of lipid nanoparticles; assay type: physicochemical; conditions: Table 2a; nanoparticles comprising the lipid
Procedure: A Zetasizer Nano ZS (Malvern Instruments Ltd, Malvern, Worcestershire, UK) can be used to determine the particle size, the polydispersity index (PDI) and the zeta potential of the nanoparticle compositions in 1×PBS in determining particle size and 15 mM PBS in determining zeta potential.
Lipid nanoparticles (e.g., empty LNPs or loaded LNPs) may be characterized by a variety of methods. For example, microscopy (e.g., transmission electron microscopy or scanning electron microscopy) may be used to examine the morphology and size distribution of a nanoparticle composition. Dynamic light scattering or potentiometry (e.g., potentiometric titrations) may be used to measure zeta potentials. Dynamic light scattering may also be utilized to determine particle sizes. Instruments such as the Zetasizer Nano ZS (Malvern Instruments Ltd, Malvern, Worcestershire, UK) may also be used to measure multiple characteristics of a nanoparticle composition, such as particle size, polydispersity index, and zeta potential.
(§1) Lipid nanoparticles (e.g., empty LNPs or loaded LNPs) including DSPC as a phospholipid, cholesterol as a structural lipid, PL-II (e.g., PEG-1) as a PEG lipid, and a lipid according to Formula (I-1), (I), (I-A), (I-A1), (I-A2), (I-A3), or (I-A4) were prepared. In some embodiments, the lipid nanoparticles further included rhodamine-DOPE as a fluorescent lipid. Tables 2a, 2b, and 3 summarize the characteristics of the formulations.

PDI | SMILES
0.128 | CCCCCCCC(CCCCCCC)OC(=O)CCCCCCCN(CCCCCCCC(=O)OCCC(CCCC)CCCC)CCCNc1n[s+]([O-])nc1NC (stereo not drawn) [Compound 15]
0.128 | CCCCCCCC(CCCCCCC)OC(=O)CCCCCCCN(CCCCCCCC(=O)OCCC(CCCC)CCCC)CCCNS(=O)(=O)CCOC [Compound 17]

same assay, conditions: Table 2a; nanoparticles comprising the lipid, DSPC, cholesterol, PEG lipid

Diameter (nm) | SMILES
76.4 nm | CCCCCCCC(CCCCCCC)OC(=O)CCCCCCCN(CCCCCCCC(=O)OCCC(CCCC)CCCC)CCCNc1n[s+]([O-])nc1NC (stereo not drawn) [Compound 15]
89.7 nm | CCCCCCCC(CCCCCCC)OC(=O)CCCCCCCN(CCCCCCCC(=O)OCCC(CCCC)CCCC)CCCNS(=O)(=O)CCOC [Compound 17]

same assay, conditions: Table 3; nanoparticles comprising the lipid

Diameter (nm) | PDI | SMILES
74.2 nm | 0.212 | CCCCCCCC(CCCCCCC)OC(=O)CCCCCCCN(CCCCCCCC(=O)OCCC(CCCC)CCCC)CCCNc1n[s+]([O-])nc1NC (stereo not drawn) [Compound 15]
90 nm | 0.129 | CCCCCCCC(CCCCCCC)OC(=O)CCCCCCCN(CCCCCCCC(=O)OCCC(CCCC)CCCC)CCCNS(=O)(=O)CCOC [Compound 17]

system: not listed separately; assay: Apparent pKa of lipid nanoparticles; assay type: physicochemical; conditions: Table 2a; nanoparticles comprising the lipid

Apparent pKa | SMILES
6.761 | CCCCCCCC(CCCCCCC)OC(=O)CCCCCCCN(CCCCCCCC(=O)OCCC(CCCC)CCCC)CCCNc1n[s+]([O-])nc1NC (stereo not drawn) [Compound 15]
6.689 | CCCCCCCC(CCCCCCC)OC(=O)CCCCCCCN(CCCCCCCC(=O)OCCC(CCCC)CCCC)CCCNS(=O)(=O)CCOC [Compound 17]

system: not listed separately; assay: Encapsulation efficiency (% EE) of lipid nanoparticles; assay type: physicochemical; conditions: Table 2a; nanoparticles comprising the lipid
Procedure: For nanoparticle compositions including an RNA, a QUANT-IT™ RIBOGREEN® RNA assay (Invitrogen Corporation Carlsbad, CA) can be used to evaluate the encapsulation of an RNA by the nanoparticle composition. The samples are diluted to a concentration of approximately 5 μg/mL in a TE buffer solution (10 mM Tris-HCl, 1 mM EDTA, pH 7.5). 50 μL of the diluted samples are transferred to a polystyrene 96 well plate and either 50 μL of TE buffer or 50 μL of a 2% Triton X-100 solution is added to the wells. The plate is incubated at a temperature of 37° C. for 15 minutes. The RIBOGREEN® reagent is diluted 1:100 in TE buffer, and 100 μL of this solution is added to each well. The fluorescence intensity can be measured using a fluorescence plate reader (Wallac Victor 1420 Multilablel Counter; Perkin Elmer, Waltham, MA) at an excitation wavelength of, for example, about 480 nm and an emission wavelength of, for example, about 520 nm. The fluorescence values of the reagent blank are subtracted from that of each of the samples and the percentage of free RNA is determined by dividing the fluorescence intensity of the intact sample (without addition of Triton X-100) by the fluorescence value of the disrupted sample (caused by the addition of Triton X-100).
The efficiency of encapsulation of a therapeutic and/or prophylactic describes the amount of therapeutic and/or prophylactic that is encapsulated or otherwise associated with a lipid nanoparticle (e.g., an empty LNP or a loaded LNP) after preparation, relative to the initial amount provided. The encapsulation efficiency is desired to be high (e.g., close to 100%). The encapsulation efficiency may be measured, for example, by comparing the amount of therapeutic and/or prophylactic in a solution containing a loaded LNP before and after breaking up the loaded LNP with one or more organic solvents or detergents. Fluorescence may be used to measure the amount of free therapeutic and/or prophylactic (e.g., RNA) in a solution. For the loaded LNPs formulated with lipids of the disclosure, the encapsulation efficiency of a therapeutic and/or prophylactic is at least 50%, for example 50%, 55%, 60%, 65%, 70%, 75%, 80%, 85%, 90%, 91%, 92%, 93%, 94%, 95%, 96%, 97%, 98%, 99%, or 100%. In some embodiments, the encapsulation efficiency is at least 80%. In some embodiments, the encapsulation efficiency is at least 90%. In some embodiments, the encapsulation efficiency of the therapeutic and/or prophylactic agent is between 80% and 100%.
as §1

% EE | SMILES
96.6% | CCCCCCCC(CCCCCCC)OC(=O)CCCCCCCN(CCCCCCCC(=O)OCCC(CCCC)CCCC)CCCNc1n[s+]([O-])nc1NC (stereo not drawn) [Compound 15]
77.1% | CCCCCCCC(CCCCCCC)OC(=O)CCCCCCCN(CCCCCCCC(=O)OCCC(CCCC)CCCC)CCCNS(=O)(=O)CCOC [Compound 17]

same assay, conditions: Table 3; nanoparticles comprising the lipid

% EE | SMILES
97.2% | CCCCCCCC(CCCCCCC)OC(=O)CCCCCCCN(CCCCCCCC(=O)OCCC(CCCC)CCCC)CCCNc1n[s+]([O-])nc1NC (stereo not drawn) [Compound 15]
93.5% | CCCCCCCC(CCCCCCC)OC(=O)CCCCCCCN(CCCCCCCC(=O)OCCC(CCCC)CCCC)CCCNS(=O)(=O)CCOC [Compound 17]

system: not listed separately; assay: Lipid nanoparticle surface hydrophobicity by Generalized Polarization by Laurdan (N-GP); assay type: physicochemical; conditions: Table 2a; Laurdan; higher N-GP indicates a less polar surface
Description: Surface hydrophobicity of nanoparticles of the disclosure can be measured by Generalized Polarization by Laurdan (GPL). In this method, Laurdan, a fluorescent aminonaphthalene ketone lipid, is post-inserted into the nanoparticle surface and the fluorescence spectrum of Laurdan is collected to determine the normalized Generalized Polarization (N-GP). In some embodiments, nanoparticles formulated with lipids of the disclosure have a surface hydrophobicity expressed as N-GP of between about 0.5 and about 1.5. For example, in some embodiments, nanoparticles formulated with lipids of the disclosure have a surface hydrophobicity expressed as N-GP of about 0.5, about 0.6, about 0.7, about 0.8, about 0.9, about 1.0, about 1.1, about 1.2, about 1.3, about 1.4, or about 1.5. In some embodiments, nanoparticles formulated with lipids of the disclosure have a surface hydrophobicity expressed as N-GP of about 1.0 or about 1.1.

Lipid nanoparticle surface hydrophobicity (N-GP*) | SMILES
0.94 | CCCCCCCC(CCCCCCC)OC(=O)CCCCCCCN(CCCCCCCC(=O)OCCC(CCCC)CCCC)CCCNc1n[s+]([O-])nc1NC (stereo not drawn) [Compound 15]
1.02 | CCCCCCCC(CCCCCCC)OC(=O)CCCCCCCN(CCCCCCCC(=O)OCCC(CCCC)CCCC)CCCNS(=O)(=O)CCOC [Compound 17]
